From ChEMBL document CHEMBL1201862, “PubChem BioAssay data set” (2004)
Activity calls are given as the source filed them.

Columns and labels:
[1] = tested on: HEK293; assay: NOD1 signaling inhibitors, primary screen, cell-based, luminescence, uHTS (AID 1578); type: functional; details: Homo sapiens
[2] = tested on: Streptococcus sp. 'group A'; assay: growth inhibition of control SK(-) GAS strain, dose response, counter-screen for streptokinase expression inhibitor project, luminescence, kanamycin, BacTiterGlo, confirmation (AID 1900); type: functional, organism-based
[3] = tested on: HEK293; assay: cells; type: functional, cell-based; details: Homo sapiens
[4] = tested on: HEK293; assay: cells; type: functional, cell-based; details: Homo sapiens; remark: listed apart in the source
[5] = biological target: Nucleotide-binding oligomerization domain-containing protein 2 (Homo sapiens, UniProt Q9HC29); assay: NOD2 signaling inhibitors, cell-based, luminescence, uHTS, HEK293 (AID 1566); type: functional
[6] = tested on: HEK293; assay: NOD2 signaling inhibitors in MDP-stimulated cells, cell-based, uHTS, luminescence (AID 2001); type: functional; details: Homo sapiens
[7] = tested on: HEK293; assay: cells; type: functional, cell-based; details: Homo sapiens; remark: listed apart in the source
[8] = microbe, parasite or virus in culture; type: functional; details: Mycobacterium tuberculosis
[9] = tested on: Streptococcus; assay: Group A Streptococcus viability loss, dose response, counter-screen for streptokinase expression inhibitor project, luminescence, BacTiterGlo (AID 1915); type: functional, organism-based;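 further: potency for reduction of bacterial viability or growth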
[10] = biological target: T1, Replicative DNA helicase DnaB (Mycobacterium tuberculosis, UniProt P9WMR3); assay: DnaB intein splicing inhibitors, dose response, biochemical, cell-free fluorescence (AID 449749); type: functional
T1 sequence (P9WMR3 whole entry): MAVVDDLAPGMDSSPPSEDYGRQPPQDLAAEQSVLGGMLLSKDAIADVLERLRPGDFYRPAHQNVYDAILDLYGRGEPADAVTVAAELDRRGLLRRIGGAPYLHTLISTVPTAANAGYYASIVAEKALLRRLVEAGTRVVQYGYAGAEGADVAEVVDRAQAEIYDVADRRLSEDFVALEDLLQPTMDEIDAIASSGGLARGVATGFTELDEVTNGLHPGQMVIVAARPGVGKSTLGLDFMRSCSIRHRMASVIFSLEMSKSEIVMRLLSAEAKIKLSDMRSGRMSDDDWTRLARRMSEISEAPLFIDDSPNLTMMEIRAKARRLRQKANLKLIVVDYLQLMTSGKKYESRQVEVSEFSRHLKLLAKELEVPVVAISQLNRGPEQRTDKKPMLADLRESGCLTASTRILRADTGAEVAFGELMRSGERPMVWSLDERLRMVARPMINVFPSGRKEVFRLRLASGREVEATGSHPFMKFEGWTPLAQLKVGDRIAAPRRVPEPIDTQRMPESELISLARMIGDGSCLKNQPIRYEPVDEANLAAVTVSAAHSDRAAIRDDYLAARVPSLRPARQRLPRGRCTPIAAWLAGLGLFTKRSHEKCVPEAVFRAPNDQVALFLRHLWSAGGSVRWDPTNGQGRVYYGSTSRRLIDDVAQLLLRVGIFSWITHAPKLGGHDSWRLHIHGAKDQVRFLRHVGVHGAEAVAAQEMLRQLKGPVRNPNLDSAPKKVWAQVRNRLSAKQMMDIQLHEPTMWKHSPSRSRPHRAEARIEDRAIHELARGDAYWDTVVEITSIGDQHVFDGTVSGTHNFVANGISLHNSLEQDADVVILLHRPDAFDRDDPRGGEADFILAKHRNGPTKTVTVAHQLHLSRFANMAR

[11] = biological target: T2, Protein RecA (Mycobacterium tuberculosis, UniProt P9WHJ3); assay: Fluorescence Cell-Free Homogeneous Dose Retest to Identify Inhibitors of RecA-Intein Splicing Activity. [Related pubchem assays (depositor defined):AID2097, AID2223, AID489010, AID492950]; type: functional
T2 sequence (P9WHJ3 whole entry): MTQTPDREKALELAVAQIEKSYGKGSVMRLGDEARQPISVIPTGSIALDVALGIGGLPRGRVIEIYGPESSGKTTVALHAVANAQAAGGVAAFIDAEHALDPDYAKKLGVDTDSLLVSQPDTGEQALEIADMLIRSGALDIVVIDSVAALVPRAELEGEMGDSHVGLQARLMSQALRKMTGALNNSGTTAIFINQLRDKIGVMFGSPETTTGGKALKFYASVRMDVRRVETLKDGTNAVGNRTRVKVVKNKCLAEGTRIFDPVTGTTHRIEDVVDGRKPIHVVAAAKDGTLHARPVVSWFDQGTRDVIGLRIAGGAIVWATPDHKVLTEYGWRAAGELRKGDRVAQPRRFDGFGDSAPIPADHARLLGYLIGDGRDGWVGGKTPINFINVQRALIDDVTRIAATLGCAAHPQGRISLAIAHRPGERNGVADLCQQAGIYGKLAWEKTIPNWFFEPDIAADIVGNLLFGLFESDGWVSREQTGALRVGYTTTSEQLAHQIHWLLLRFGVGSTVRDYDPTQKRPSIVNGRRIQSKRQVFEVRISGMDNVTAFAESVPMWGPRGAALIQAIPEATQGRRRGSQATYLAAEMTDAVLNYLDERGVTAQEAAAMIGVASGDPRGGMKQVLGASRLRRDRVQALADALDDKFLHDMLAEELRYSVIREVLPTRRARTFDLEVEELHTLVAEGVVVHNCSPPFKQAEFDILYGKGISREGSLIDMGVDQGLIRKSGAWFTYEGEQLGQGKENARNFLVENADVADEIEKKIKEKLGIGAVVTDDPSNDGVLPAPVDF

[12] = biological target: Runt-related transcription factor 1/Core-binding factor subunit beta (Homo sapiens, UniProt Q01196+Q13951); assay: Confirmation of compounds inhibiting the binding between the RUNX1 Runt domain and CBFb-SMMHC via a fluorescence resonance energy transfer (FRET) assay. [Related pubchem assays (depositor defined):AID1434, AID1438, AID1496, AID1550, AID1645]; type: protein assay
[13] = biological target: T3, Hexokinase HKDC1 (Homo sapiens, UniProt Q2TB90); assay: HKDC1 hexokinase activators, dose response, biochemical, W721R variant (AID 504730); type: functional
T3 sequence (Q2TB90 whole entry): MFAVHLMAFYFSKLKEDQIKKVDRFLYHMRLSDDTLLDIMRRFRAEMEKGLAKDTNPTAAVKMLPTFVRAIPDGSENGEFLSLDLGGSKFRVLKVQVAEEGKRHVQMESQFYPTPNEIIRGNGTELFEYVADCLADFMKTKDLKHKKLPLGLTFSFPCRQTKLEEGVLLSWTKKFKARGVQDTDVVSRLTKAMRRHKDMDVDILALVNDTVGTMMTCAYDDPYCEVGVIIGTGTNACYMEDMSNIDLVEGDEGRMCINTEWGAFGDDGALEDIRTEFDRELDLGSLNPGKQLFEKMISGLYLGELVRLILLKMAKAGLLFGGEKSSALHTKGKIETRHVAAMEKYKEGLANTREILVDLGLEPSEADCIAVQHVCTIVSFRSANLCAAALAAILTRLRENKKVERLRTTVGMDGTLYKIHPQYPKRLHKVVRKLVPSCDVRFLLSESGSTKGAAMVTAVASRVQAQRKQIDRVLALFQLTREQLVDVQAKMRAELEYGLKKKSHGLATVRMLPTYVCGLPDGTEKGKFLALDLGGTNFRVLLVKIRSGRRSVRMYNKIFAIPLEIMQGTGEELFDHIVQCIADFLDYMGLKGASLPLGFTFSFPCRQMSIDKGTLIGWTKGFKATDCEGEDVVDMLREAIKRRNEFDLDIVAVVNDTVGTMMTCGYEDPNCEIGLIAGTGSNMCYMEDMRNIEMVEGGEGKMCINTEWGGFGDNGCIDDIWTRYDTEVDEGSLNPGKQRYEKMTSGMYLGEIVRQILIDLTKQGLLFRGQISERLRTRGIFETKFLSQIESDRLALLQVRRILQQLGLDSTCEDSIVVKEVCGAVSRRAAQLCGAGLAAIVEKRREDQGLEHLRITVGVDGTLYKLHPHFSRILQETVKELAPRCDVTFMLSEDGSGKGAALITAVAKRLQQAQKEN

[14] = biological target: T4, Hexokinase-1 (Homo sapiens, UniProt P19367); assay: hexokinase 1 activators, dose response, selectivity assay for HKDC1 activator project, biochemical (AID 504762); type: functional
T4 sequence (P19367 whole entry): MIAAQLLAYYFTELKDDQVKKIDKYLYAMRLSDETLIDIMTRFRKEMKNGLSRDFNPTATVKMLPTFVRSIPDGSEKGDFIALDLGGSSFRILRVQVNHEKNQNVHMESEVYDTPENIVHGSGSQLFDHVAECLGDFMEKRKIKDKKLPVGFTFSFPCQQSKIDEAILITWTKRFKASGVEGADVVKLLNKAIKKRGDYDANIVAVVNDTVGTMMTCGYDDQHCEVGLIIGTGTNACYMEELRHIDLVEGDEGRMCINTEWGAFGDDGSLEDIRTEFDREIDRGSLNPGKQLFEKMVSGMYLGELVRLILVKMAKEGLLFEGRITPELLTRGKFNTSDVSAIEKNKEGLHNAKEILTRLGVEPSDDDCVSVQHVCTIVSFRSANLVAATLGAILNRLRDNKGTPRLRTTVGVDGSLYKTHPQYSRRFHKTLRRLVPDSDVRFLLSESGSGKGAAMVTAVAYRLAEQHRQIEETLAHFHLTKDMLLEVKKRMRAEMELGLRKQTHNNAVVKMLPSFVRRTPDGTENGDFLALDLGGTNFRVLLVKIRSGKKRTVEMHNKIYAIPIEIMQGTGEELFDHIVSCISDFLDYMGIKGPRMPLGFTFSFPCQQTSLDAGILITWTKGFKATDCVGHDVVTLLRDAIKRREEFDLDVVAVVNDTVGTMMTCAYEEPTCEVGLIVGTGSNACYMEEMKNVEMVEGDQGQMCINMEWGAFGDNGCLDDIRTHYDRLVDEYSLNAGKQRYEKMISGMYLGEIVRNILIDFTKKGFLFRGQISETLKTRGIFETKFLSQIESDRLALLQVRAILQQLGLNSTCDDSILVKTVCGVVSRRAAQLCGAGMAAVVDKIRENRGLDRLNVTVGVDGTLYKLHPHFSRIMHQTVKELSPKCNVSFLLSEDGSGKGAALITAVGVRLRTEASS

Chain of Nucleotide-binding oligomerization domain-containing protein 2 (Q9HC29 whole entry, the tested form may be a part): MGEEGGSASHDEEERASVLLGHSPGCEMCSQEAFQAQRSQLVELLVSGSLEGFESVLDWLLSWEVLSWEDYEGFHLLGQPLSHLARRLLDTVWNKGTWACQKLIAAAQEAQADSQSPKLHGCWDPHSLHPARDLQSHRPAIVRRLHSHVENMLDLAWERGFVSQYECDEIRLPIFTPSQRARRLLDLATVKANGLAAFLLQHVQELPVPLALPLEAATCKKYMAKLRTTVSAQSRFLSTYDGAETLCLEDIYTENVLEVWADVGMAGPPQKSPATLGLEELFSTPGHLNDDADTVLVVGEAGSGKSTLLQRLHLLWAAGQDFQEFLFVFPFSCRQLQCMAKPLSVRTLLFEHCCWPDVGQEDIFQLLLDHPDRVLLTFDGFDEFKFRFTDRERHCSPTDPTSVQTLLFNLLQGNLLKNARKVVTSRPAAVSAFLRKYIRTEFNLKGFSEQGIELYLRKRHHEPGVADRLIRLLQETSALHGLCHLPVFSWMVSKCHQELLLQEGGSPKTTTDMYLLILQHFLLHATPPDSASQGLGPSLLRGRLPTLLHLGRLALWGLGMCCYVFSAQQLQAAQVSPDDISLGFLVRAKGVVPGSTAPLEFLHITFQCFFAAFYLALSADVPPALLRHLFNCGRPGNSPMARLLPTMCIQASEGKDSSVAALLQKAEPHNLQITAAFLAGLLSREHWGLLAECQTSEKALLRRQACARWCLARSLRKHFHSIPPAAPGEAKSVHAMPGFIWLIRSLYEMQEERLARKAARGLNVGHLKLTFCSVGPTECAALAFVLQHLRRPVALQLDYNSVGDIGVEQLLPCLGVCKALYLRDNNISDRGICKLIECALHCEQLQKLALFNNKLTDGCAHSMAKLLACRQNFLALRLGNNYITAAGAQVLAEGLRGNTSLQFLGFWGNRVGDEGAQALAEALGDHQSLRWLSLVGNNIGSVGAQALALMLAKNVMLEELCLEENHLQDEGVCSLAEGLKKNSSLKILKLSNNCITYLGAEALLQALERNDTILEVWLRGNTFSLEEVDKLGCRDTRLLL
Chain of Runt-related transcription factor 1/Core-binding factor subunit beta (Q01196 whole entry, the tested form may be a part): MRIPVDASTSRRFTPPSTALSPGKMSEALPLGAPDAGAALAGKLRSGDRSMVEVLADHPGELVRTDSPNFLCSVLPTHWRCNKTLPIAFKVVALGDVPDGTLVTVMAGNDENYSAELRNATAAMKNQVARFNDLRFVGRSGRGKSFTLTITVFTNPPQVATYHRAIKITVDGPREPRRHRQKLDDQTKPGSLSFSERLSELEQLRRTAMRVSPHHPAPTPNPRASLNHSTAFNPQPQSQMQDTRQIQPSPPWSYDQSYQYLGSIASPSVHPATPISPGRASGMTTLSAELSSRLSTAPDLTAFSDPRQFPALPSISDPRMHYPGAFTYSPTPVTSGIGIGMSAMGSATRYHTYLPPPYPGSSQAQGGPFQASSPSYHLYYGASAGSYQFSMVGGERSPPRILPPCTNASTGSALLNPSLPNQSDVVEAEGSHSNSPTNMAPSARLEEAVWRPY
Chain of Runt-related transcription factor 1/Core-binding factor subunit beta (Q13951 whole entry, the tested form may be a part): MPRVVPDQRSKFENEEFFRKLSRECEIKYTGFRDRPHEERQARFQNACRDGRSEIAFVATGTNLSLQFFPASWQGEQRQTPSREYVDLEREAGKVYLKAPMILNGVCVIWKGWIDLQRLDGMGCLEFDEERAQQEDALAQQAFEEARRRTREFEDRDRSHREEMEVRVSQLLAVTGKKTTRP

Nc1nn2c(O)cc(-c3ccccc3)nc2c1N=Nc1ccc2c(c1)OCO2
active: EC50 [1] 18.4 µM | EC50 [2] 2.16 µM | IC50 [7] 19 µM | CC50 [8] 29.9 µM | EC50 [9] 3.77 µM
inactive: IC50 [3] > 20 µM | IC50 [4] > 20 µM | EC50 [5] > 20 µM | IC50 [6] 14.5 µM

O=C(CCl)Nc1c2c(nn1-c1ccccc1)CSC2
inactive: IC50 [4] > 20 µM | EC50 [5] > 20 µM | IC50 [6] 15.1 µM | IC50 [7] > 20 µM
active: EC50 [1] 3.07 µM | IC50 [3] 8.63 µM | AC50 [10] 60.5 µM | EC50 [11] 11.4 µM

O=S(=O)(Nc1ccc(-c2nc3cccnc3s2)cc1)c1ccccc1F
inactive: IC50 [12] > 50 µM

CC(=O)N1CCN(C2c3cccc4cccc(c34)C2NS(=O)(=O)c2ccccc2)CC1 (stereo not given)
inactive: EC50 [13] 48.9 µM | EC50 [14] 29.4 µM
